Test results taken from patent US11883423B2, “Nucleobase analogue derivatives and their applications” (BOARD OF REGENTS, THE UNIVERSITY OF TEXAS SYSTEM, priority 2014, dated 2024).
Counter-ions that a name gives are not always drawn.

Tests used:
Panc-02 tumor cells = test: Cytotoxicity after 4 h co-incubation, MTT test; type: cell-based, mouse; conditions: Panc-02 cells, at concentrations of more than 80 μM
Protocol: The mechanisms underlying the cytotoxicity of the Gem-DHA may be different from that of gemcitabine. For example, in cell culture studies, Panc-02 cells were seeded into 96-well plates (1,500 cells per well) and incubated at 37° C., 5% CO2 for 24 h. They were then co-incubated with various concentrations of Gem-DHA, gemcitabine HCl alone, or DHA alone for 4 h, and cell viability was determined using an MTT test.

BxPC-3 cells [1] = test: Cytotoxicity of Gem-ARA, MTT assay, BxPC-3 cells; type: cell-based, human; conditions: Homo sapiens, up to 72 h, mean ± SD (n>3)
Protocol: (§1) To understand the effect of the omega-3 polyunsaturated fatty acid nature of the DHA (i.e., the docosahexaedecanoyl group) in the Gem-DHA on its cytotoxicity against tumor cells, gemcitabine was also conjugated to arachidonic acid, an omega-6 polyunsaturated fatty acid, to synthesize 4-(N)-arachidonyl gemcitabine (Gem-ARA) (FIG. 4). Human pancreatic cancer cells (MIA PaCa-2 or BxPC-3) were seeded (3,000/well) in 96-well plates. After overnight incubation, cells were treated with various concentrations of gemcitabine HCl or Gem-ARA at 37° C., 5% CO2 for up to 72 h. Gemcitabine HCl was dissolved in phosphate buffered saline (PBS, pH 7.4, 10 mM), and Gem-ARA was dissolved in DMSO. The maximum amount of DMSO added per well was 0.9 μL, which was found non-toxic. The number of viable cells after the incubation was determined using an MTT assay as described above. The 50% inhibition concentration (IC50) values were estimated using GraphPad prism 5 parameters curve fittings.

Panc-1-Luc tumors [2] = test: Antitumor activity against orthotopic Panc-1-Luc tumors in nude mice, with tumor histology; type: in vivo
Description: Nude mice with intrapancreatically injected Panc-1-Luc human pancreatic cancer cells were used as a mouse model of pancreatic cancer. The National Institutes of Health guidelines for animal use and care were followed Animal protocols were approved by the Institutional Animal Care and Use Committee at the University of Texas at Austin. Panc-1-Luc cells (Muniz VP et al. Mol Cancer Res. 2011, 9(7), 867-877) were implanted orthotopically by injecting 1×10^6 cells into (the tail of) the pancreas.
Panc-1-Luc cell suspension was prepared at a concentration of 2×10^7 per ml in a 1:1 (v/v) mixture of DMEM and Matrigel. Tumor cells were then injected into the pancreas of male athymic nude mice (6-8 weeks, Charles River Laboratories, Wilmington, Mass.) following a surgical procedure (Raut CP et al. Cancer Biol Ther. 2004, 3(12), 1217-1224; Bruns CJ et al. Neoplasia. 1999, 1(1), 50-62). Briefly, after mice were anesthetized using isoflurane, the skin and peritoneum were cut open about 1 cm in length using sterile surgical scalpels. The pancreas was pulled out, and 50 μL of the cell suspension were injected slowly until a small bleb was formed. After the needle was withdrawn, a small cotton plug was applied for 10 s. The pancreas was returned back, the peritoneum was sutured with Monocryl™ bioresorbable sutures (Ethicon, Somerville, N.J.), and the skin was then closed using surgical clips. Mice were s.c. injected with buprenorphine (0.1 mg/kg) as a pain killer and were left to heal for one week. Tumor progress was monitored using an IVIS™ Spectrum imaging system (Caliper, Hopkinton, MA). For IVIS imaging, each mouse was i.p. injected with a luciferin solution (15 mg/ml) at a dose of 0.15 mg/g body weight in sterile DPBS, anesthetized with isoflurane, and imaged 10 min after luciferin injection. Four weeks after tumor implantation, mice with tumors were randomized into 3 groups (n=5-7) and intraperitoneally injected (i.p) with Gem-DHA (50 mg/kg, ˜0.087 mmole/kg), gemcitabine HCl (26.1 mg/kg, ˜0.087 mmole/kg), or left untreated. Gem-DHA was in a Tween 80/ethanol/water solution with 5% (w/v) of mannitol, and gemcitabine HCl was in sterile mannitol solution (5%, w/v). Treatments were repeated twice a week for a total 7 doses. Thirty days after the first treatment, mice were sacrificed and tumors were dissected from the pancreas, weighed, and fixed in formalin. The doses were based on the average weight of mice in the same group on the day of injection, and were adjusted only if the weight of an individual mouse was above or below 10% of the average weight.
Tumor tissues were sectioned and stained in the Histology and Tissue Analysis Core at Dell Pediatric Research Institute at the University of Texas at Austin or in the Department of
Molecular Carcinogenesis at the University of Texas M.D. Anderson Cancer Center at Science Park (Smithville, Texas) with hematoxylin & eosin (H&E), antibodies against cleaved lamin-A (apoptosis marker), CD-31 (angiogenesis marker), or Ki-67 (proliferation marker). Slides were then scanned, and images were taken using the ScanScope XT (Aperio Technologies, Vista, CA). […] In addition, several areas of necrosis can also be seen in the centers of the tumors. […] Several pyknotic cells with condensed chromatin can also be seen in tumors in mice that were treated with Gem-DHA.

Panc-1-Luc tumors [3] = test: Orthotopic Panc-1-Luc tumors in nude mice: gemcitabine HCl versus mixture with DHA; type: in vivo; conditions: about 0.11 mmole/kg each, twice a week, 10 times, started 2 weeks after implantation
Protocol: The doses of both gemcitabine HCl (˜33.7 mg/kg) and DHA (˜35.3 mg/kg) were about 0.11 mmole/kg. Mice were sacrificed in the 8th week after tumor implantation, and the tumors were excised and weighed. The doses were based on the average weight of mice in the same group on the day of injection, and were adjusted only if the weight of an individual mouse was above or below 10% of the average weight.

Panc-02 cells = test: Anti-proliferative activity, MTT assay, Panc-02 cells; type: cell-based; conditions: Mus musculus, Panc02, 24 h
Protocol: (§2) The anti-proliferative activity of Gem-DHA was evaluated in Panc-02, TC-1, Panc-1-Luc, and BxPC-3 cell lines. For Panc-02 and TC-1 cells, cells (1,500/well for Panc-02 and 3,000/well for TC-1) were seeded in 96-well plates and incubated at 37° C. and 5% CO2 overnight. The cells were then treated with various concentrations of Gem-DHA or other compounds for 24 h. For BxPC-3 and Panc-1-Luc cells, 3,000 and 1,000 cells/well were used, respectively, and cells were co-incubated with the Gem-DHA for 72 h. Cell viability was determined using an MTT assay as previously described (Naguib YW et al. Mol Pharm. 2014, 11(4), 1239-1249). Gemcitabine HCl was dissolved in cell culture medium, whereas Gem-DHA and DHA were dissolved in dimethylsulfoxide (DMSO). The values of IC50 were calculated using GraphPad Prism (GraphPad software, Inc., La Jolla, CA).

BxPC-3 cells [4] = test: Anti-proliferative activity, MTT assay, BxPC-3 cells; type: cell-based, human; conditions: Homo sapiens; BxPC-3 cells, 72 h
Protocol: as §2

MIA PaCa-2 cells = test: Cytotoxicity of Gem-ARA, MTT assay, MIA PaCa-2 cells; type: cell-based, human; conditions: Homo sapiens, up to 72 h, mean ± SD (n>3)
Protocol: as §1

[5] = test system: advanced pancreatic cancer; conditions: cited from earlier work
[6] = parameters: species or system BALB/c mice; conditions: female, BALB/c, mouse, in vivo, iv, 75 mg/kg, 1 h
Protocol: The biodistribution of Gem-DHA was further evaluated in healthy BALB/c mice. Briefly, female BALB/c mice (Charles River, 14-16 weeks, n=3) were injected via the tail vein with Gem-DHA in a Tween 80/ethanol/water solution containing 5% (w/v) mannitol at a dose of 75 mg/kg. After 1 h, mice were euthanized to collect pancreas, lung, spleen, liver, heart, and kidneys. Gem-DHA was extracted from the samples and analyzed using HPLC. As a control, mice (n=3) were also injected with gemcitabine HCl (75 mg/kg) in 5% (w/v) mannitol solution and euthanized 1 h later to collect their pancreas. Gemcitabine was extracted using the following method. Briefly, once the pancreas was collected, it was weighed, placed into 0.25 ml of PBS containing 40 μg of tetrahydrouridine (a deoxycytidine deaminase inhibitor) and homogenized using a bead beater. Deoxyuridine (dU, 20 μl of 20 μg/ml) was then added into the homogenate as an internal standard. Acetonitrile was used to precipitate the proteins twice, and gemcitabine content in the supernatant was analyzed using HPLC. […] Therefore, it appeared that Gem-DHA preferred to distribute in pancreatic tissues.

[7] = target: deoxycytidinedeaminases (dCDA) (Homo sapiens, UniProt P32320); conditions: upon injection, extracellularly and intracellularly; cited from earlier work
deoxycytidinedeaminases (dCDA), sequence (P32320 whole entry): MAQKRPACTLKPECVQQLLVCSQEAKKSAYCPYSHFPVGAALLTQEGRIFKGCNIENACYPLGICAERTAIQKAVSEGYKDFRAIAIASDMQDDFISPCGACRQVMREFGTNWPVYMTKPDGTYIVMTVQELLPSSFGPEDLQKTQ

IC50 (Panc-02 cells): 0.004 ± 0.0015 µM | IC50 (BxPC-3 cells [4]): 0.0185 ± 0.0145 µM | Percent of injected compound recovered in each gram of pancreas [6]: 0.07±0.03%
Compound: Nc1ccn([C@@H]2O[C@H](CO)[C@@H](O)C2(F)F)c(=O)n1 [Gemcitabine HCl, 2′, 2′-difluorodeoxycytidine, reference compound]
Cytotoxicity after 4 h of co-incubation (Panc-02 tumor cells): did not show any significant cytotoxicity | IC50 (BxPC-3 cells [1]): 0.00552 ± 0.00455 µM | Average tumor weight at the end of the study (Panc-1-Luc tumors [2]; 30 days after first treatment, versus untreated): not significantly different from that in mice that were left untreated | Inhibition of growth of Panc-1-Luc tumors (Panc-1-Luc tumors [2]; i.p., ~0.087 mmole/kg (Gem-DHA 50 mg/kg, gemcitabine HCl 26.1 mg/kg), twice a week, 7 doses): did not significantly inhibit the growth | Cleaved lamin-A positive staining in tumors (Panc-1-Luc tumors [2]; versus untreated mice): not different from that in mice that were not treated | Micro-vessel density (MVD) in tumors, anti-CD-31 staining (Panc-1-Luc tumors [2]; versus untreated mice): not different from that in mice that were not treated | Control of tumor growth (tumor weight) (Panc-1-Luc tumors [3]): did not reveal any significant difference | IC50 (MIA PaCa-2 cells): 0.0502 ± 0.003 µM | Improvement in median survival duration ([5]; patients with advanced pancreatic cancer): 5 week | 12-month survival ([5]; standard care for advanced pancreatic cancer): 18% | Fraction deaminated to dFdU [7]: over 90%
